From patent US20200246364A1, “MEDICAL APPLICATION OF COMPOSITION OF FRUCTOSE-1,6-BISPHOSPHATE AND BLOOD CONCENTRATION STABILIZER THEREOF” (ZHEJIANG UNIVERSITY, priority 2017, published 2020)
Marks after values point to notes of the source that are not given here.

Tests used:
[1] = test system: fructose-1,6-bisphosphatase 1; assay: Kidney protein level of fructose-1,6-bisphosphatase 1 after 14 days treatment (Western Blot); format: in vivo; conditions: SD rats, 14 days i.g.; FBP 500 mg/kg, metformin 150 mg/kg, sitagliptin 20 mg/kg; vs control group
Protocol: 180-200 g SD rats were divided into 4 groups: a saline control group, a trisodium fructose-1,6-bisphosphate hydrate group (500 mg/kg, i.g), a metformin group (150 mg/kg, i.g) or a sitagliptin group (20 mg/kg, i.g), and a trisodium fructose-1,6-bisphosphate and metformin or sitagliptin combination group, 5 rats in each group. All groups were intragastrically treated, metformin or sitagliptin was administrated 0.5 h before fructose-1,6-bisphosphate, and this was repeated in 14 consecutive days. At 3 hours after the last intragastric treatment with fructose-1,6-bisphosphate, rat blood was collected to detect the blood concentration of FBP, kidney tissue was taken and the protein level of fructose-1,6-bisphosphatase 1 was measured by Western Blot.

[2] = test system: melanoma B16 cell; assay: Cell viability, Sulforhodamine B (SRB) staining; conditions: Mus musculus, B16, 72 h
Protocol: Mouse melanoma B16 cells, which had been incubated for 24 hours, were incubated in a medium containing 0.8 mM of trisodium fructose-1,6-bisphosphate, a medium containing 20 μM of sitagliptin, and a medium containing 0.8 mM of trisodium fructose-1,6-bisphosphate and 20 μM of sitagliptin for 72 h. A control group (Con) was not treated with the agent. Cell viability was determined by Sulforhodamine B (SRB) staining analysis method.

[3] = test system: C6; assay: Intracellular glycolytic intermediates (LC-MS/MS) and FBP in culture medium; format: cell-based, rat; conditions: C6, 1.6 mM, 36 h
Protocol: (§1) Rat glioma cell strains (C6), human glioma cell strains (U87-MG, U-251, SHG-44) and patient-derived glioma cells (tumor 1, tumor 3) were incubated in a culture medium containing 1.6 mM of trisodium fructose-1,6-bisphosphate, and after 36 h, levels of glycolytic intermediates including glucose-6-phosphate G6P, fructose-1,6-bisphosphate FBP, glyceraldehyde 3-phosphate (GAP), dihydroxyacetone phosphate (DHAP), and […] 3-phosphoglyceric acid PGA in respective cells were measured by using LC-MS/MS; and additionally, the levels of fructose-1,6-bisphosphate in each glioma cell strain at 12 h and 36 h were measured.

[4] = test system: HCT-8; assay: Cell viability, Sulforhodamine B (SRB) staining; format: cell-based, human; conditions: Homo sapiens, HCT-8, 72 h, FBP 0.8 mM
Protocol: Human intestinal cancer cell strains SW620 and HCT-8, which had been incubated for 24 hours, were respectively incubated in a medium containing 0.8 mM of trisodium fructose-1,6-bisphosphate, a medium containing 0.2 mM of metformin/100 μM of sitagliptin, and a medium containing 0.8 mM of trisodium fructose-1,6-bisphosphate and 0.2 mM of metformin/100 μM of sitagliptin for 72 h. A control group (Con) was not treated with the agent. Cell viability was determined by Sulforhodamine B (SRB) staining analysis method.

[5] = test system: Huh-7; assay: Cell viability, Sulforhodamine B (SRB) staining; format: cell-based, human; conditions: Homo sapiens, Huh-7, 72 h, FBP 0.8 mM
Protocol: Human liver cancer cell strains Bel-7402 and huh-7, which had been incubated for 24 hours, were respectively incubated in a medium containing 1.6 mM or 0.8 mM of trisodium fructose-1,6-bisphosphate, a medium containing 0.2 mM of metformin or 25 μM of sitagliptin, and a medium containing 0.8 mM of trisodium fructose-1,6-bisphosphate and 0.2 mM of metformin/25 μM of sitagliptin for 72 h. A control group (Con) was not treated with the agent. Cell viability was determined by Sulforhodamine B (SRB) staining analysis method.

[6] = test system: KNS-89; assay: Intracellular glycolytic intermediates (LC-MS/MS); format: cell-based, human; conditions: KNS-89, 1.6 mM, 36 h
[7] = test system: U87-MG; assay: Intracellular glycolytic intermediates (LC-MS/MS) and FBP in culture medium; format: cell-based, human; conditions: 1.6 mM, 36 h
Protocol: as §1

[8] = test system: SHG-44; assay: as above; format: cell-based, human; conditions: SHG-44, 1.6 mM, 36 h
Protocol: as §1

[9] = test system: U87MG; assay: Tricarboxylic acid circulation intermediates in cytoplasm and mitochondria (LC-MS/MS); format: cell-based, human; conditions: 1.6 mM, 36 h
Protocol: Human glioma cell strain (U87MG) was cultured in a medium containing 1.6 mM of trisodium fructose-1,6-bisphosphate for 36 h, and then cytoplasm and mitochondria were separated. Levels of tricarboxylic acid circulation intermediates in cytoplasm and mitochondria were respectively measured by LC-MS/MS.

[10] = test system: peripheral neuralgia induced by paclitaxel; assay: Peripheral neuralgia induced by paclitaxel, hot plate experiment; format: in vivo, ICR mice
Protocol: In this study, paclitaxel (2.8 mg/kg, 10 ml/kg) was injected intraperitoneally every other day, 4 times in total (days 1, 3, 5, 7) to induce peripheral neuralgia model in ICR female mice with a body weight of 20-24 g, and this model was used to observe the preventive effect of fructose-1,6-bisphosphate on the peripheral neuralgia caused by the chemotherapeutic agent. The paclitaxel antitumor agent is one of the first-line agents for human malignant tumors. Dose-limiting toxicity of paclitaxel mainly includes neurotoxicity and myelosuppression, the latter has been successfully overcome by using granulocyte colony-stimulating factor. However, the neurotoxicity, behaving as neuropathic pain, is still a worldwide problem, because the pain caused by this chemotherapy is not sensitive to any clinically used analgesics, and thus some patients have to reduce the dose until withdrawing the agent, which seriously affects the effect of the chemotherapy or even causes a failure of the chemotherapy. Some pains caused by the paclitaxel chemotherapy may not be eliminated immediately after the agent withdrawal, and often continues for months or even years, which seriously affects the life quality of tumor patients. In view of this, the peripheral neuralgia caused by paclitaxel is a representative pain after cancer treatment, and the animal pain model induced by paclitaxel is also representative.
A hot plate method was used to screen mice having relatively uniform heat-sensitive responses for experiments. […]
The heat-sensitive response of hind paws of the mice was measured with a hot plate experiment (52° C.±0.3) at 2 pm to 4 pm every day. […] In this way, a latent period of licking or retracting the hind paws was recorded. […] After the paclitaxel injection finished, the fructose-1,6-bisphosphate was continuously administrated and the heat-sensitive responses of the animals in each group were measured. […]

## O=C(COP(=O)(O)O)[C@@H](O)[C@H](O)[C@H](O)COP(=O)(O)O [FBP, fructose-1,6-bisphosphate]
[1]
  protein level of fructose-1,6-bisphosphatase 1 in kidney tissue (Western Blot): significantly up-regulated
[2]; read-out: cell viability (Con = 100)
  viability at 800 µM: 77.7 ± 7.29%
[2]; read-out: cell viability inhibited
  cytotoxicity at 800 µM: 22%
[3]
  Increase folds of intracellular DHAP (compared with the control group): 66.04 folds
  Increase folds of intracellular F6P (compared with the control group): 19.89 folds
  Increase folds of intracellular FBP (compared with the control group): 92.22 folds
  Increase folds of intracellular GAP (compared with the control group): 132.85 folds
  Increase folds of intracellular PGA (compared with the control group): 2.2 folds
[4]; STG 100 μM, read-out: cell viability (Con = 100)
  viability at 800 µM: 85.9 ± 3.29%
[4]; sitagliptin 100 μM, read-out: cell viability inhibited
  cytotoxicity at 800 µM: 41%
[5]; STG 25 μM, read-out: cell viability (Con = 100)
  viability at 800 µM: 80.4 ± 3.63%
[5]; sitagliptin 25 μM, read-out: cell viability inhibited
  cytotoxicity at 800 µM: 20%
[6]
  Increase folds of intracellular DHAP (compared with the control group): 8.74 folds
  Increase folds of intracellular F6P (compared with the control group): 1.89 folds
  Increase folds of intracellular FBP (compared with the control group): 21.97 folds
  Increase folds of intracellular GAP (compared with the control group): 19.75 folds
  Increase folds of intracellular PGA (compared with the control group): 3.28 folds
[7]
  Increase folds of intracellular DHAP (compared with the control group): 944.4 folds
  Increase folds of intracellular F6P (compared with the control group): 47.31 folds
  Increase folds of intracellular FBP (compared with the control group): 149.69 folds
  Increase folds of intracellular GAP (compared with the control group): 1222.86 folds
  Increase folds of intracellular PGA (compared with the control group): 3.03 folds
[8]
  Increase folds of intracellular DHAP (compared with the control group): 12.48 folds
  Increase folds of intracellular F6P (compared with the control group): 3.12 folds
  Increase folds of intracellular FBP (compared with the control group): 10.74 folds
  Increase folds of intracellular GAP (compared with the control group): 21.03 folds
  Increase folds of intracellular PGA (compared with the control group): 2.04 folds
[9]; cytoplasm
  Relative level of Ac-CoA (compared with the control group): 0.02 ± 0.01
  Relative level of Cit (compared with the control group): 0.28 ± 0.01
  Relative level of OAA (compared with the control group): 0.19 ± 0.01
  Relative level of α-KG (compared with the control group): 1.20 ± 0.12*^
[9]; mitochondria
  Relative level of Ac-CoA (compared with the control group): 1.38 ± 0.11
  Relative level of Cit (compared with the control group): 1.02 ± 0.06
  Relative level of OAA (compared with the control group): 2.02 ± 0.13
  Relative level of α-KG (compared with the control group): 2.42 ± 0.04
[10]; 400 mg/kg ig once per day, day 7 and any later time point, vs model group
  hind paw retraction latent period (hot plate 52° C.): significantly longer
[10]; high-dose FBP (400 mg/kg)
  efficacy against peripheral neuralgia over treatment duration: gradually disappears
[10]; low-dose FBP (200 mg/kg)
  efficacy against peripheral neuralgia over treatment duration: gradually increases
